One data set concerns AKT. Nature of the data set: Retinoic acid-induced AKT activation by immunoblotting. Conditions: 50 μM each, Caco-2 and MEF cells. The class given is cell-based. On the technique in general: A western blot detects proteins with antibodies after separation by electrophoresis.
Data set [1] deals with T1, interaction of p85α with RXRα/Δ80 (Homo sapiens, UniProt P19793).
T1 construct: expressed in transfected cells; host or cells: A549 human lung cancer cells
Nature of the data set: Co-immunoprecipitation of Flag-p85α and Myc-RXRα/Δ80 in A549 cells. The class given is cell-based. As to conditions: 50 μM, with or without TNFα. The protocol:
Caco-2 and MEF cells were treated with the indicated concentration of Sulindac or K-80003 for 30 min, then stimulated with all-trans-RA (10^-7 M) for 15 min. AKT activation was analyzed by immunoblotting. PC3 cells transfected with RXRα or RARγ siRNA were pre-treated with K-80003 (50 μM) for 1 hr before exposed to TNFα (10 ng/ml) for 30 min (pRXRα: phosphorylated RXRα). A549 cells were transfected with Flag-p85α and Myc-RXRα/[…], treated with Sulindac (50 μM) or K-80003 (50 μM) for 1 hr, exposed to TNFα for 30 min, and analyzed by coimmunoprecipitation using an anti-Flag antibody. […] (FIG. 8C). Reducing RXRα expression by siRNA largely impaired the inhibitory effect of K-80003 on AKT activation in PC3 cells. […] Thus, inhibition of AKT activation by K-80003 was also dependent on RXRα expression (FIG. 8B). For the CoIP assay, cells or cells transfected with indicated expression vectors were suspended in lysis buffer (50 mM Tris-HCl, pH 7.4; 150 mM NaCl; 20 mM EDTA; 1% NP-40; 1 mM PMSF; […] Leupeptin; […] Aprotinin; 0.1 mM Na3VO4; and 1 mM DTT). […] Immunoreactive products were detected by chemiluminescence with an enhanced chemiluminescence system (ECLTM) (Amersham Biosciences, Amersham, UK).

Data set [2] concerns prostaglandin E2 (PGE2) production. Nature of the data set: PGE2 production in A549 cells. The class given is cell-based, human. Here is the method: A549 cells were seeded in 24-well plates in DMEM with 10% fetal bovine serum. After overnight culture, cells were stimulated with 10 ng/ml IL-1β in DMEM medium without serum for 24 hr. After 10 min pretreatment with the indicated concentrations of Sulindac or analog, cells were co-treated with 10 μM arachidonic acid and Sulindac or its analog for 30 min at 37° C. Medium was collected and immediately assayed. PGE2 production was measured with Prostaglandin E2 EIA Kit-Monoclonal according to the manufacturer's instructions (Cayman Chemical, Ann Arbor, Mich.). PGE2 production (%) is expressed as the ratio of PGE2 produced in the presence of compound to that with vehicle alone.

Data set [3] can be described thus: Preclinical toxicity study. The class given is in vivo. The protocol:
Preclinical studies of K-80003 were performed, including the investigation of toxicity, bioavailability, and pharmacokinetics.

In a further data set the test system is cancer. Nature of the data set: Preventing cancer in a human patient. Conditions: 150 mg tablet twice daily. The class given is in vivo. The protocol: A human patient with an elevated risk of developing cancer relative to the general population is identified and instructed to take a 150 mg tablet containing the active ingredient K-80003 twice daily.
The next data set concerns the target RXRα LBD (Homo sapiens, UniProt P19793). In words: Proteolytic protection assay (chymotrypsin sensitivity). The class given is binding. As to conditions: 100 μM. The protocol: Altered sensitivity of RXRα ligand-binding domain (LBD) to chymotrypsin (ug/ml) by Sulindac (100 μM) (FIG. 1C) and differential scanning calorimetry (DSC) scans comparing ^19F NMR spectra of Sulindac (100 μM) in the absence and presence of 10 μM RXRα LBD or Nur77 protein (FIG. 1D) were also determined. Binding to RXRα was confirmed by altered sensitivity of RXRα to chymotrypsin digestion by Sulindac (FIG. 1C) and differential scanning calorimetry (DSC) (FIG. 1D). In addition, inhibition of SR11237 (10^−6 M)-activated RXRα transactivation by Sulindac was measured (FIG. 1F, see Example 2).
RXRα LBD was synthesized by in vitro transcription-translation using rabbit reticulocyte lysates (Promega, Fitchburg, Wis.) as described previously (Kolluri, S. K. et al., Proc Natl Acad Sci USA 102 (7), 2525-2530 (2005); Zhang, X. K. et al., Nature 355 (6359), 441-446 (1992); Zhang, X.-K. et al., Nature. 358 (6387), 587-591 (1992)). In vitro translated ^35[S]methionine labeled RXRα-LBD was preincubated with solvent (1% DMSO), Sulindac (100 μM) or 9-cis-RA (10^−7 M) for 30 min. and then digested with indicated concentration of chymotrypsin. Digested fragments were separated by PAGE.

The next data set concerns the target T2, RXRα/PPARγ heterodimer (Homo sapiens, UniProt P19793).
T2 construct: expressed in transfected cells; host or cells: CV-1 green monkey kidney cells
Nature of the data set: DR1 tk-CAT reporter assay in CV-1 cells. In kind it is cell-based. Conditions: ciglitazone 10^−6 M. The protocol: Receptor expression vectors and a reporter gene (TREpal2-tk-CAT for RXRα/TRα heterodimers (FIG. 9C), and DR1 tk-CAT for RXRα/PPARγ heterodimer (FIG. 9B)) were transiently transfected into CV-1 cells. Cells were treated with or without ligands (ciglitazone, 10^−6 M; T3, 10^−7 M) in the presence or absence of Sulindac. CAT activity was determined.
Cells (1×10^5 cells/well) seeded in 24-well plates were transiently transfected using a modified calcium phosphate precipitation procedure as described (Kolluri, S. K. et al., Proc Natl Acad Sci USA 102 (7), 2525-2530 (2005); Cao, X., et al., Mol Cell Biol 24(22), 9705-9725 (2004)).

A further data set has as its system HepG2 cells. Nature of the data set: Caspase-8 activation by anti-cleaved caspase-8 immunostaining. As to conditions: TNFα and Sulindac. In kind it is cell-based. Here is the method:
PC3 cells transfected with CA-AKT or DN-AKT were treated with TNFα and/or Sulindac, and analyzed by immunoblotting (FIG. 6F). Activation of caspase-8 (FIG. 6G) and Bax (FIG. 6H) by Sulindac and TNFα. HepG2 cells transfected with CA-AKT were treated with TNFα and Sulindac, and immunostained with anti-cleaved caspase-8 or Bax/6A7 antibody. […] Sulindac/TNFα-induced PARP cleavage was inhibited by transfection of constitutive-active AKT (CA-AKT) but enhanced by transfection of dominant-negative AKT (DN-AKT) (FIG. 6F). Consistently, induction of apoptosis (FIG. 17B) and activation of caspase-8 (FIG. 6G) and Bax (FIG. 6H) by Sulindac/TNFα combination was inhibited by CA-AKT.

This note sets out measurements from US10087156B2, “Methods and compositions related to retinoid receptor-selective pathway” (Sanford Burnham Prebys Medical Discovery Institute, priority 2010, dated 2018).

Entries after “also recorded” stand apart in the source; their conditions may differ.

T1 sequence (P19793 81-462 limits assumed, stated change not applied): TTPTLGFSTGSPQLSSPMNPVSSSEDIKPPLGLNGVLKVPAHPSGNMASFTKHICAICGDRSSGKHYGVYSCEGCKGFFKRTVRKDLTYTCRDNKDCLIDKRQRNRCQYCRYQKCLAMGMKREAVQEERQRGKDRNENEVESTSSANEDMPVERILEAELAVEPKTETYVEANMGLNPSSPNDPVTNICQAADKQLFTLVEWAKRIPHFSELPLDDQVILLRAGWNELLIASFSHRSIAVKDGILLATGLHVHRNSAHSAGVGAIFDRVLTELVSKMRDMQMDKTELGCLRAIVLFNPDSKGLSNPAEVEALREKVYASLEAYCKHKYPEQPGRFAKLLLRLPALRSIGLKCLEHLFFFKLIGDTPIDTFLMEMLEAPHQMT
T2 sequence (P19793 whole entry): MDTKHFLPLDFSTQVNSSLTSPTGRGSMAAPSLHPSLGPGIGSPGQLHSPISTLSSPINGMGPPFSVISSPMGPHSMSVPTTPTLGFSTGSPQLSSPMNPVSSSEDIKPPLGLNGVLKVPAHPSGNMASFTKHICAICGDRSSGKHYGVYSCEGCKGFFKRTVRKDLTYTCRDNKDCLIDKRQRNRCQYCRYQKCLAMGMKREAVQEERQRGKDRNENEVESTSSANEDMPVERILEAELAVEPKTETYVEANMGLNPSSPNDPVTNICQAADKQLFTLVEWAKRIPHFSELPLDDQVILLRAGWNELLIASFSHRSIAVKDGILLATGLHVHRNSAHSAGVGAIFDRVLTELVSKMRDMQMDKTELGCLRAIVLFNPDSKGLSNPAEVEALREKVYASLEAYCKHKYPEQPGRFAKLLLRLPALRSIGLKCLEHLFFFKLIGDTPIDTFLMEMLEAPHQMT
T2 sequence (P37231 whole entry partner): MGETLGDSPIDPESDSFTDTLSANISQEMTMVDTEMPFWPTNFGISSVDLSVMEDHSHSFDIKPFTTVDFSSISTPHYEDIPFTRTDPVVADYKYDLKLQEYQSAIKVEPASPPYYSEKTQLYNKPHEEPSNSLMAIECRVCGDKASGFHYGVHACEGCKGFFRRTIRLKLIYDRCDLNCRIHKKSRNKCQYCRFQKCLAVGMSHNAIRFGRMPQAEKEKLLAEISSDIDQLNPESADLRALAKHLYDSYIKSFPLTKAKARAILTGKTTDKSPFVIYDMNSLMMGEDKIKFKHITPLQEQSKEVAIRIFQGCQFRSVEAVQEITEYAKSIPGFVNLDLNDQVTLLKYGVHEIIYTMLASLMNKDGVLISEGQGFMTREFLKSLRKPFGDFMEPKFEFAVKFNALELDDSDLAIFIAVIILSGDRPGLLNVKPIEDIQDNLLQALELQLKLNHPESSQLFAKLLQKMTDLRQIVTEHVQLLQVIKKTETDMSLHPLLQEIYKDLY
Chain of RXRα LBD (P19793 227-458 limits assumed): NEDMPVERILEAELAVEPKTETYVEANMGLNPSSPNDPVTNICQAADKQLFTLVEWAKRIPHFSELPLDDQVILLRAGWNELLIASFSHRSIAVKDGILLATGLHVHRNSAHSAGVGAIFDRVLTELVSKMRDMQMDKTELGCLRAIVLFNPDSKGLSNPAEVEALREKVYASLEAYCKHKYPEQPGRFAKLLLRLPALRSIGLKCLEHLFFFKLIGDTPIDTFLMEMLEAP
Protocol for AKT: MEF and Caco-2 cells were starved overnight and pretreated with Sulindac for 30 min before exposure to all-trans-retinoic acid (ATRA) (10^−7 M) for 30 min and analyzed for AKT activation (FIG. 12B).
Caco-2 and MEF cells were treated with the indicated concentration of Sulindac or K-80003 for 30 min, then stimulated with all-trans-RA (10^−7 M) for 15 min. AKT activation was analyzed by immunoblotting.
For immunoblotting, cell lysates were boiled in SDS sample buffer, resolved by SDS-polyacrylamide gel electrophoresis, and transferred to nitrocellulose. After transfer, the membranes were blocked in 5% milk in TBST (10 mM Tris-HCl, pH. 8.0, 150 mM NaCl, 0.05% Tween 20) containing antibody. The membranes were then washed three times with TBST, then incubated for 1 hr at room temperature in 5% milk in TBST containing horseradish peroxide-linked anti-immunoglobulin.

With `CC1=C(CC(=O)O)c2cc(F)ccc2/C1=C\c1ccc(C(C)C)cc1` [K-80003, (Z)-2-(3-(4-Iso-propylbenzylidene)-6-fluoro-2-methyl-3H-inden-1-yl)acetic acid], the “inhibition of ATRA-induced AKT activation, compared with Sulindac” value with AKT is recorded as “much more effective than Sulindac”. For the same compound, the “inhibition of interaction of p85α with RXRα/Δ80” value in data set [1] is reported as “much more effective than Sulindac; also recorded: potently inhibited”. Moreover, the “inhibition of constitutive and TNFα- or IL-1β-induced PGE2 production” value in data set [2] is recorded as “failed to inhibit; also recorded: did not inhibit”. In addition, the toxicity entry in data set [3] was “very low toxicity”. The “development of cancer in patient at elevated risk” value with cancer is “does not develop cancer”.
Consider `CSc1ccc(/C=C2/C(C)=C(CC(=O)O)c3cc(F)ccc32)cc1` [Sulindac, (Z)-2-(3-(4-(Methylthio)benzylidene)-6-fluoro-2-methyl-3H-inden-1-yl)acetic acid], for which the “binding to RXRα by altered sensitivity to chymotrypsin digestion” value at RXRα LBD is recorded as “confirmed”. Moreover, on RXRα/PPARγ heterodimer, the “transactivation of RXRα/PPARγ heterodimers (CAT activity)” value was “inhibited transactivation”. In addition, in the data set with HepG2 cells, the “cells showing caspase-8 staining, CA-AKT-transfected” value is reported as 15% and the “cells showing caspase-8 staining, nontransfected” value is given as “About 80%”.
